US8007782B2, “Combination bacteriolytic therapy for the treatment of tumors” (priority 2003, dated 2011)

What was measured:
[1] = test system: HCT116 human colorectal cancer cells; assay: Tumorigenicity assay, HCT116 xenografts in nude mice; type: in vivo; settings: for Effect with C. novyi-NT / Effect alone: nude mice; for Effect alone: agent alone
[2] = test system: HCT116, HuCC-T1, HT-29, SW480, B16 and DLD-1 tumors; assay: Low dose HTI-286 and L-NNA on various xenografts (FIG. 10); type: in vivo, mice; settings: HTI-286 1 mg/kg without L-NNA; L-NNA 10 mg/kg without HTI-286
Source text: FIG. 10A-10F Quantification of the effects of C. novyi-NT plus low doses of HTI-286 and L-NNA on various xenografts (HCT116, HuCC-T1, HT-29, SW480, B16, and DLD-1, respectively).
[…] […] The p-values are based on comparisons between L-NNA+HTI-286 and L-NNA+HTI-286+C. novyi-NT spores. The p-value is indicated only when the result was statistically significant.
All animal protocols were designed in accordance with the Guide for the Care and Use of Laboratory Animals (NIH Publication 86-23) and were approved by the Johns Hopkins University Institutional Animal Care and Use Committee. Six to eight week old mice were implanted subcutaneously on one flank with 3 to 6 million cancer cells. Establishment of tumors of 150 to 500 mm3 took 8 to 21 days, depending on the cell type. C. novyi-NT spores (300×106) and anti-microtubule agents were generally administered by a single intravenous injection through the tail vein in a total volume of 300 to 500 ul phosphate-buffered saline (PBS). Quantitative assessment of tumor growth was performed by measuring subcutaneous tumor grafts (major and minor axis) using electronic calipers. Tumor volume was calculated using the equation: length×width2×0.5. Progression free survival was defined as the length of time following treatment before any increase in tumor volume was observed. Mice were considered “cured” if no tumor was evident three months after treatment. […]

[3] = test system: Glucose Transporter-1 (Glut-1); assay: Immunohistochemistry for Glut-1 (hypoxia marker) in HCT116 xenografts; type: in vivo, mice; settings: HTI-286 1.7 mg/kg or docetaxel 50 mg/kg iv, 6 hr after treatment
Procedure: Mice were euthanized six hours after treatment. Tumors were sectioned and H & E stained. Adjacent sections were stained for Glut-1 expression, a marker for hypoxia. Cells positive for Glut-1 appear brown. Arrows indicate examples of hemorrhage.
Paraffin sections were deparaffinized, incubated with proteinase K (Invitrogen), heated at 95° C. for 20 min in citrate buffer (pH 6), and treated with peroxidase blocking reagent (Dako). Sections were incubated with a monoclonal antibody against Glucose Transporter-1 (Glut-1, Dako) followed by a biotin-conjugated secondary antibody (Pierce). A third layer consisting of HRP-conjugated anti-biotin (DAKO) was followed by diaminobenzidine (Sigma) staining. Sections were counterstained with eosin.
Two independent tests of this hypothesis were performed. First, we directly assessed hypoxia within tumors by staining with an antibody to Glucose Transporter-1 (Glut-1). Glut-1 has been extensively studied and shown to be specifically expressed only in hypoxic regions (Airley et al., 2001).

C. novyi-NT = assay: Quantification of C. novyi-NT in tumors by real-time PCR; type: in vivo, C. novyi-NT in mice bearing HCT116 xenografts; settings: versus spores without drug; HCT116 xenografts; SD printed +/−0.08 (HTI-286), +/−0.3 (docetaxel)
Procedure: Mice bearing HCT116 xenografts were treated with C. novyi-NT spores with or without HTI-286 (1.7 mg/kg) as described above. Following euthanasia 24-48 hr later, tumors were harvested, weighed, minced, and Dounce-homogenized. Genomic DNA was isolated using the Qiagen Genomic DNA Buffer Set and Genomic-tip 100/G. 25 ng of DNA was used in a PCR using the conditions described in (Vogelstein and Kinzler, 1999) The following primers specific for the C. novyi-NT phospholipase C gene were used: 5′-[…] (SEQ ID NO:1) and 5′-[…] (SEQ ID NO:2). No detectable primer dimers formed and no nonspecific amplification of mouse or xenograft genomic DNA occurred with these primers and PCR conditions. Real-time PCR was performed using an iCycler, and threshold cycle numbers were calculated using the iCycler Optical system interface software (Bio-Rad Lab, Hercules, Calif.). Averages of the threshold cycle number (Ct) of triplicate measurements per tumor were obtained, and three different tumors were studied for each treatment group. The results were expressed as the difference between the Ct of the treated tumor and the Ct of untreated controls, normalized to tumor weight.
Second, we directly tested the size of bacterial populations within tumors by measuring the number of bacteria at various times following intravenous injection of C. novyi-NT spores into mice bearing HCT116 xenografts. […]

Weight loss after COBALT = type: in vivo, nude mice; settings: drug dose 1.7 mg/kg; maximum average weight loss relative to weight one day prior to treatment; HCT116 xenografts

CN[C@H](C(=O)N[C@H](C(=O)N(C)[C@H](/C=C(\C)C(=O)O)C(C)C)C(C)(C)C)C(C)(C)c1ccccc1 [HTI-286, N,β,β-trimethyl-L-phenylalanyl-N^1-[(1S,2E)-3-carboxy-1-isopropylbut-2-enyl]-N^1,3-dimethyl-L-valinamide]
Effect with C. novyi-NT ([1]; 0.5 mg/kg × 1 (iv) with 3×108 C. novyi-NT spores iv): +
Effect with C. novyi-NT ([1]; 1.0 mg/kg × 1 (iv) with 3×108 C. novyi-NT spores iv): +
Effect with C. novyi-NT ([1]; 1.5 mg/kg × 1 (iv) with 3×108 C. novyi-NT spores iv): ++ (10% to 50% shrinkage in tumor volume relative to pre-treatment size)
Effect with C. novyi-NT ([1]; 1.7 mg/kg × 1 (iv) with 3×108 C. novyi-NT spores iv): ++++ (>20% cures)
Effect with C. novyi-NT ([1]; 1.9 mg/kg × 1 (iv) with 3×108 C. novyi-NT spores iv): ++++ (>20% cures)
Effect with C. novyi-NT ([1]; 2 (2.0) mg/kg × 1 (iv) with 3×108 C. novyi-NT spores iv): ++++ (>20% cures)
Effect alone ([1]; 0.5 mg/kg × 1 (iv)): 0
Effect alone ([1]; 1.0 mg/kg × 1 (iv)): 0
Effect alone ([1]; 1.5 mg/kg × 1 (iv)): +
Effect alone ([1]; 1.7 mg/kg × 1 (iv)): +
Effect alone ([1]; 1.9 mg/kg × 1 (iv)): ++ (10% to 50% shrinkage in tumor volume relative to pre-treatment size)
Effect alone ([1]; 2 (2.0) mg/kg × 1 (iv)): ++ (10% to 50% shrinkage in tumor volume relative to pre-treatment size)
hemorrhagic necrosis ([1]; single treatment): modest amount of hemorrhagic necrosis
effects on tumor growth when administered without the other agent [2]: no significant effects on tumor growth
Glut-1 expression (hypoxia marker) in tumors [3]: large amounts of Glut-1
increase in number of C. novyi-NT bacteria in tumor when co-injected with drug (C. novyi-NT): 6.8 fold
Weight Loss (%) (Weight loss after COBALT): 11.4%
